The values below come from US20090118363A1, “SESAMIN-CLASS COMPOUND-CONTAINING FOODS OR BEVERAGES FOR ANIMALS” (priority 2006, published 2009).

A short description of the data set: Test of dissolving sesamin-class compounds into fats and oils (solubility). In kind it is physicochemical. The method, then:
Solubility of sesamin-class compounds to various fats and oils was determined. Sesamin, episesamin, and a mixture of sesamin and episesamin, sesamin:episesamin=51.1:48.2 (Takemoto Oil and Fat Co., Ltd.), were used as the sesamin-class compounds. The sesamin and the episesamin were prepared by isolating them from the mixture and purifying them. The respective sesamin-class compounds were dissolved into five different kinds of fats and oils, 100 g each, shown in Table 1 to determine a limit amount (solubility) of the respective sesamin-class compounds that can be dissolved completely. It is understood from Table 1 that the sesamin, the episesamin, and the mixture of the sesamin and the episesamin have different solubilities, and that the solubility varies in a manner that depends on the types of the fats and oils.

As for `c1cc2c(cc1[C@H]1OC[C@H]3[C@@H]1CO[C@@H]3c1ccc3c(c1)OCO3)OCO2` [SESAMIN, sesamin], the “Solubility in fats and oils: DG” value is 1.25%; the “Solubility in fats and oils: MCT-1” value is 4.0%; the “Solubility in fats and oils: MCT-2” value is 2.0%; the “Solubility in fats and oils: olive oil” value is on record as 0.75%. In addition, the “Solubility in fats and oils: wheatgerm oil” value stood at 0.75%.
Turning to `c1cc2c(cc1[C@H]1OC[C@H]3[C@@H]1CO[C@@H]3c1ccc3c(c1)OCO3)OCO2` [EPISESAMIN, episesamin], the “Solubility in fats and oils: DG” value turned out to be 1.0%; the “Solubility in fats and oils: MCT-1” value amounted to 2.5%; the “Solubility in fats and oils: MCT-2” value is on record as 2.5%; the “Solubility in fats and oils: olive oil” value is 0.5%. Also, the “Solubility in fats and oils: wheatgerm oil” value was determined as 0.75%.
